This passage reports IC50 results from US9884063B2, “Amido-substituted azole compounds” (Bayer Pharma Aktiengesellschaft, priority 2014, dated 2018).

By pIC50 is commonly meant the negative decadic logarithm of the IC50, by convention in mol/L. A higher pIC50 goes with a small IC50.

pIC50: −log10 of the molar value.

For experiment [1], the system named is HEK293 FOP control reporter cell line. Description: HEK293 FOP Assay (FOP control vector luciferase reporter). It is filed as cell-based. Particulars: Homo sapiens. Here is the method: In a parallel approach, HEK293 cells were cotransfected with the FOP control vector and pcDNA3. The FOP vector is identical to the TOP construct, but it contains instead of functional TCF elements a randomized, non-functional sequence. For this transfection a stable transfected cell line was generated as well, based on selection with Geneticin (1 mg/ml).
(§1) In preparation of the assay, the two cell lines were plated 24 hrs before beginning the test at 10000 cells per well in a 384 micro titre plate (MTP) in 30 μl growth medium. […] The recombinant human Wnt-3a was thereby applied between 2500 and 5 ng/ml in two-fold dilution steps.
(§2) Selective inhibitory activity for small molecules on the wildtype Wnt pathway was determined after parallel incubation of both (TOP and FOP) HEK293 reporter cell lines with a compound dilution series from 50 μM to 15 nM in steps of 3.16-fold dilutions in CAFTY buffer (130 mM sodium chloride, 5 mM potassium chloride, 20 mM HEPES, 1 mM magnesium chloride, 5 mM sodium bicarbonate, pH 7.4) containing 2 mM Ca^2+ and 0.01% BSA.
(§3) The compounds were thereby serially prediluted in 100% DMSO and thereafter 50 fold into the CAFTY compound dilution buffer (described above).
(A reporter such as luciferase makes a cellular process visible.)

The subject of experiment [2] is wildtype Wnt signaling cascade. Description: HEK293 TOP Assay (Super TopFlash luciferase reporter, Wnt-3a stimulated). It is filed as cell-based. Particulars: Homo sapiens, HEK293, 16 h. As to the method: In order to discover and characterize small molecules which inhibit the wildtype Wnt pathway, a cellular reporter assay was employed. The corresponding assay cell was generated by transfection of the mammalian cell line HEK293 (ATCC, #CRL-1573) with the Super TopFlash vector (Morin, Science 275, 1997, 1787-1790; Molenaar et al., Cell 86 (3), 1996, 391-399). The HEK293 cell line is cultivated at 37° C. and 5% CO2 in DMEM (Life Technologies, #41965-039), supplemented with 2 mM glutamine, 20 mM HEPES, 1.4 mM pyruvate, 0.15% Na-bicarbonate and 10% foetal bovine serum (GIBCO, #10270). Stable transfectants were generated by selection with 300 μg/ml Hygromycin.
as §1, §2, §3

The mark [3] stands for this setting: HEK293 FOP control reporter cell line, 16 hours incubation, compound dilution series 50 μM to 15 nM.
[4] abbreviates: HEK293 TOP reporter cell line, Wnt-3a at EC50, 16 hours incubation, compound dilution series 50 μM to 15 nM.

Regarding `CNC(=O)c1nc[nH]c1C(=O)Nc1ccc(NC(=O)c2ccc(F)cc2)c(F)c1` [Example 76, N^5-{3-fluoro-4-[(4-fluorobenzoyl)amino]phenyl}-N^4-methyl-1H-imidazole-4,5-dicarboxamide], the negative-log IC50 (pIC50) in experiment [1] (setting [3]) is 5.13; in experiment [2] (setting [4]), 4.92.

For `CNC(=O)c1nc[nH]c1C(=O)Nc1ccc(NC(=O)c2cccc(C(F)(F)F)c2)cc1` [Example 314, N^4-methyl-N^5-(4-{[3-(trifluoromethyl)benzoyl]amino}phenyl)-1H-imidazole-4,5-dicarboxamide], the negative-log IC50 (pIC50) in experiment [1] (setting [3]) is 4.62; in experiment [2] (setting [4]) it was 5.16.

Consider `CCNC(=O)c1[nH]cnc1C(=O)Nc1ccc(NC(=O)c2ccc(F)cc2)cc1` [Example 137, N^5-ethyl-N^4-{4-[(4-fluorobenzoyl)amino]phenyl}-1H-imidazole-4,5-dicarboxamide], for which the pIC50 in experiment [1] (setting [3]) is 5.10; in experiment [2] (setting [4]), 5.63.

With `CC1CN(CCNC(=O)c2[nH]cnc2C(=O)Nc2ccc(NC(=O)c3ccccc3Cl)cc2)CC(C)O1` (stereo not shown) [Example 300, N^4-{4-[(2-chlorobenzoyl)amino]phenyl}-N^5-[2-(2,6-dimethylmorpholin-4-yl)-ethyl]-1H-imidazole-4,5-dicarboxamide], the pIC50 in experiment [1] (setting [3]) was 4.51; in experiment [2] (setting [4]), 6.25.

Turning to `CNC(=O)c1nc[nH]c1C(=O)Nc1ccc(NC(=O)c2cccc(F)c2F)cc1` [Example 319, N^5-{4-[(2,3-difluorobenzoyl)amino]phenyl}-N^4-methyl-1H-imidazole-4,5-dicarboxamide], the results for the pIC50 in experiment [1] (setting [3]) and in experiment [2] (setting [4]) were 4.43 and 5.05, respectively.

As to `CNC(=O)c1nc[nH]c1C(=O)Nc1ccc(NC(=O)c2cccc(Cl)c2)cc1` [Example 325, N^5-{4-[(3-chlorobenzoyl)amino]phenyl}-N^4-methyl-1H-imidazole-4,5-dicarboxamide], the pIC50 in experiment [1] (setting [3]) is 5.00; in experiment [2] (setting [4]), 5.31.

As for `O=C(Nc1ccc(NC(=O)c2nc[nH]c2C(=O)NCCCN2CCCC2=O)cc1)c1ccc(F)cc1Cl` [Example 299, N^4-{4-[(2-chloro-4-fluorobenzoyl)amino]phenyl}-N^5-[3-(2-oxopyrrolidin-1-yl)-propyl]-1H-imidazole-4,5-dicarboxamide], the negative-log IC50 (pIC50) in experiment [1] (setting [3]) is 4.37; in experiment [2] (setting [4]) it was 6.13.

Take `CN1CCN(CC(C)(C)NC(=O)c2[nH]cnc2C(=O)Nc2ccc(NC(=O)c3ccc(F)cc3Cl)cc2)CC1` [Example 194, N^4-{4-[(2-chloro-4-fluorobenzoyl)amino]phenyl}-N^5-[2-methyl-1-(4-methylpiperazin-1-yl)propan-2-yl]-1H-imidazole-4,5-dicarboxamide]: the pIC50 was 5.64 in experiment [1] (setting [3]) and 6.39 in experiment [2] (setting [4]).

For the molecule `CN1CCN(CC(C)(C)NC(=O)c2[nH]cnc2C(=O)Nc2ccc(NC(=O)c3ccccc3Cl)cc2)CC1` [Example 203, N^4-{4-[(2-chlorobenzoyl)amino]phenyl}-N^5-[2-methyl-1-(4-methylpiperazin-1-yl)propan-2-yl]-1H-imidazole-4,5-dicarboxamide], the values for the pIC50 in experiment [1] (setting [3]) and in experiment [2] (setting [4]) were 4.55 and 5.52, respectively.

As to `CC(C)(C)NC(=O)c1[nH]cnc1C(=O)Nc1ccc(NC(=O)c2ccc(F)cc2)cc1` [Example 129, N^5-tert-butyl-N^4-{4-[(4-fluorobenzoyl)amino]phenyl}-1H-imidazole-4,5-dicarboxamide], the figures for the pIC50 in experiment [1] (setting [3]) and in experiment [2] (setting [4]) were 4.82 and 5.17, respectively.

With `CC(C)[C@@H](C)NC(=O)c1[nH]cnc1C(=O)Nc1ccc(NC(=O)c2ccc(F)cc2)cc1` [Example 135, N^4-{4-[(4-fluorobenzoyl)amino]phenyl}-N^5-[(2R)-3-methylbutan-2-yl]-1H-imidazole-4,5-dicarboxamide], the negative-log IC50 (pIC50) in experiment [1] (setting [3]) is 4.66; in experiment [2] (setting [4]), 5.14.

`COC(=O)c1nc[nH]c1C(=O)Nc1ccc(NC(=O)c2ccc(F)cc2)c(C)c1` [Example 90, methyl-5-({4-[(4-fluorobenzoyl)amino]-3-methylphenyl}carbamoyl)-1H-imidazole-4-carboxylate]: the negative logarithm of the IC50 (pIC50) in experiment [1] (setting [3]) was 4.89; in experiment [2] (setting [4]), 5.31.

With `CC1CCCN(CCNC(=O)c2[nH]cnc2C(=O)Nc2ccc(NC(=O)c3ccc(F)cc3)cc2)C1` (stereo not shown) [Example 211, N^4-{4-[(4-fluorobenzoyl)amino]phenyl}-N^5-[2-(3-methylpiperidin-1-yl)ethyl]-1H-imidazole-4,5-dicarboxamide], the pIC50 is 4.62 in experiment [1] (setting [3]) and 6.11 in experiment [2] (setting [4]).

Turning to `CNC(=O)c1nc[nH]c1C(=O)Nc1ccc(NC(=O)c2ccc(N(C)C)cc2)cc1` [Example 315, N^5-(4-{[4-(dimethylamino)benzoyl]amino}phenyl)-N^4-methyl-1H-imidazole-4,5-dicarboxamide], the values for the pIC50 in experiment [1] (setting [3]) and in experiment [2] (setting [4]) were 4.39 and 4.85, respectively.

In the case of `CNC(=O)c1nc[nH]c1C(=O)Nc1ccc(NC(=O)c2ccc(OC)c(OC)c2OC)cc1` [Example 40, N^4-methyl-N^5-{4-[(2,3,4-trimethoxybenzoyl)amino]phenyl}-1H-imidazole-4,5-dicarboxamide], the pIC50 in experiment [1] (HEK293 FOP control reporter cells, 16 hours, luciferase, dilution series from 50 μM) was at most 4.30; in experiment [2] (setting [4]), 4.92; in experiment [2] (HEK293 TOP reporter cells, Wnt3a at EC50, 16 hours, luciferase), 4.92.

In turn, `CN1CCN(CCNC(=O)c2[nH]cnc2C(=O)Nc2ccc(NC(=O)c3ccc(F)cc3)cc2)CC1` [Example 161, N^4-{4-[(4-fluorobenzoyl)amino]phenyl}-N^5-[2-(4-methylpiperazin-1-yl)ethyl]-1H-imidazole-4,5-dicarboxamide] showed a negative-log IC50 (pIC50) in experiment [2] (setting [4]) of 4.44.

Take `CNC(=O)c1nc[nH]c1C(=O)Nc1ccc(NC(=O)c2ccno2)cc1` [Example 354, N^4-methyl-N^5-{4-[(1,2-oxazol-5-ylcarbonyl)amino]phenyl}-1H-imidazole-4,5-dicarboxamide]: the pIC50 in experiment [2] (setting [4]) is 4.30.

Turning to `CNC(=O)c1nc[nH]c1C(=O)Nc1ccc(NC(=O)c2ccc(Cl)c(Cl)c2)cc1` [Example 308, N^5-{4-[(3,4-dichlorobenzoyl)amino]phenyl}-N^4-methyl-1H-imidazole-4,5-dicarboxamide], the negative-log IC50 (pIC50) in experiment [2] (setting [4]) is 5.47.

In turn, `CN1CCN(CCCNC(=O)c2[nH]cnc2C(=O)Nc2ccc(NC(=O)c3ccc(F)cc3)cc2)CC1` [Example 181, N^4-{4-[(4-fluorobenzoyl)amino]phenyl}-N^5-[3-(4-methylpiperazin-1-yl)propyl]-1H-imidazole-4,5-dicarboxamide] gave a pIC50 in experiment [2] (setting [4]) of 5.17.

In experiment [2] (setting [4]), `CNC(=O)c1nc[nH]c1C(=O)Nc1ccc(NC(=O)c2cccc(F)c2C)cc1` [Example 324, N^5-{4-[(3-fluoro-2-methylbenzoyl)amino]phenyl}-N^4-methyl-1H-imidazole-4,5-dicarboxamide] gave a pIC50 of 5.49.

As for `Cc1cc(NC(=O)c2[nH]cnc2C(=O)NCCN2CCCCC2)ccc1NC(=O)c1ccc(F)cc1` [Example 93, N^5-{4-[(4-fluorobenzoyl)amino]-3-methylphenyl}-N^4-[2-(piperidin-1-yl)ethyl]-1H-imidazole-4,5-dicarboxamide], the pIC50 in experiment [2] (setting [4]) is 5.58.

`CC(CNC(=O)c1[nH]cnc1C(=O)Nc1ccc(NC(=O)c2ccc(F)cc2)cc1)N1CCN(C)CC1` (stereo not shown) [Example 205, N^4-{4-[(4-fluorobenzoyl)amino]phenyl}-N^5-[2-(4-methylpiperazin-1-yl)propyl]-1H-imidazole-4,5-dicarboxamide] showed a pIC50 in experiment [2] (setting [4]) of 5.58.

For `CNC(=O)c1[nH]cnc1C(=O)Nc1ccc(NC(=O)c2ccc(F)cc2Cl)c(OC(F)(F)F)c1` [Example 291, N^4-{4-[(2-chloro-4-fluorobenzoyl)amino]-3-(trifluoromethoxy)phenyl}-N^5-methyl-1H-imidazole-4,5-dicarboxamide], the pIC50 in experiment [2] (setting [4]) is 4.84.

On to `CNC(=O)c1nc[nH]c1C(=O)Nc1ccc(NC(=O)c2cc(F)cc(F)c2F)cc1` [Example 347, N^4-methyl-N^5-{4-[(2,3,5-trifluorobenzoyl)amino]phenyl}-1H-imidazole-4,5-dicarboxamide], for which the pIC50 in experiment [2] (setting [4]) is 4.46.

`CNC(=O)c1nc[nH]c1C(=O)Nc1ccc(NC(=O)c2cc(F)cc(Cl)c2)cc1` [Example 360, N^5-{4-[(3-chloro-5-fluorobenzoyl)amino]phenyl}-N^4-methyl-1H-imidazole-4,5-dicarboxamide] showed a negative-log IC50 (pIC50) in experiment [2] (setting [4]) of 4.82.

In the case of `CNC(=O)c1nc[nH]c1C(=O)Nc1ccc(NC(=O)c2ccc(OC)cc2)cc1` [Example 304, N^5-{4-[(4-methoxybenzoyl)amino]phenyl}-N^4-methyl-1H-imidazole-4,5-dicarboxamide], the negative logarithm of the IC50 (pIC50) in experiment [2] (setting [4]) was 4.94.

In the case of `O=C(Nc1ccc(NC(=O)c2nc[nH]c2C(=O)NCCN2CCC(O)CC2)cc1)c1ccc(F)cc1` [Example 178, N^4-{4-[(4-fluorobenzoyl)amino]phenyl}-N^5-[2-(4-hydroxypiperidin-1-yl)ethyl]-1H-imidazole-4,5-dicarboxamide], the pIC50 in experiment [2] (setting [4]) was 5.93.
